Laboratory results reported in patent publication US11208386B2, “Inhibitors of protein arginine deiminases (PADs) and methods of preparation and use thereof” (University of Massachusetts, priority 2016, dated 2021).

What was measured:
Type in all cases: biochemical
PAD1 = molecular target: T1, PAD1 (Homo sapiens, UniProt Q9ULC6); test: Inactivation kinetics, PAD1; conditions: for kinact/KI: a: single kobs determined, b: from a linear fit; for Fold PAD1 Selectivity: kinact/KI relative to least inhibited isozyme (1.0)
T1 construct: made in house
T1 sequence (Q9ULC6 1-663): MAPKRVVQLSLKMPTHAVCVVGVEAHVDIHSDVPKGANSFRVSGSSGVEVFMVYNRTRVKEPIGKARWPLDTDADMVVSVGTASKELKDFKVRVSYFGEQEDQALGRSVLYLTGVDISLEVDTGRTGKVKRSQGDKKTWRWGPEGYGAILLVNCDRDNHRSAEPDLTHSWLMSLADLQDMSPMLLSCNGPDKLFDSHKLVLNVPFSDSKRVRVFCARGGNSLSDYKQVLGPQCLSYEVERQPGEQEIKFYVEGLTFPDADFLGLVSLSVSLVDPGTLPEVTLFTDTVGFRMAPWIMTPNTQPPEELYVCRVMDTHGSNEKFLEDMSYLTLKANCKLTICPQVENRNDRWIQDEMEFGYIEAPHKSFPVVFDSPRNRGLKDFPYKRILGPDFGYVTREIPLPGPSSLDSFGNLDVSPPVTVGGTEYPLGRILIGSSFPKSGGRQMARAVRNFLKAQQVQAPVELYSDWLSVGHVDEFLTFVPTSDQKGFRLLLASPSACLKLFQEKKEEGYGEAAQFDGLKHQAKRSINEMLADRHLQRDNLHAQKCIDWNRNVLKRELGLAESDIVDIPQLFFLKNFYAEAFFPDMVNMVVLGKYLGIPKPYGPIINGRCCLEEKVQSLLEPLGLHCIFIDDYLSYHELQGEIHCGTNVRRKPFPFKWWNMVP
Description: (§1) Inactivation kinetic parameters were determined by incubating PAD1, 2, or 4 (2.0 μM) or PAD3 (5.0 μM) in a pre-warmed (10 min; 37° C.) inactivation mixture (50 mM HEPES, 10 mM CaCl2, and 2 mM DTT, pH 7.6, with a final volume of 60 μL) containing various concentrations of inhibitor. Aliquots were removed at various time points and added to a pre-warmed (10 min, 37° C.) reaction mixture (50 mM HEPES, 50 mM NaCl, 10 mM CaC2, 2 mM DTT, and 10 mM BAEE or 10 mM BAA in the case of PAD3; pH 7.6). After 15 min, reactions were quenched in liquid nitrogen and citrulline production quantified using the COLDER assay. […] In Vitro Labeling of PADs with “Clickable” Probes BB-F-Yne (5u), BB-Cl-Yne (5v) and BIFYne (5w)

PAD2 = molecular target: T2, PAD2 (Homo sapiens, UniProt Q9Y2J8); test: Inactivation kinetics, PAD2; conditions: for kinact/KI: a: single kobs determined, b: from a linear fit, other footnotes: from kinact and KI; for Fold PAD2 Selectivity: kinact/KI relative to least inhibited isozyme (1.0)
T2 construct: made in house
Description: as §1

PAD4 = molecular target: T3, PAD4 (Homo sapiens, UniProt Q9UM07); test: Inactivation kinetics, PAD4; conditions: for kinact/KI: a: single kobs determined, b: from a linear fit; for Fold PAD4 Selectivity: kinact/KI relative to least inhibited isozyme (1.0)
T3 construct: made in house
Description: as §1

PAD3 = molecular target: T4, PAD3 (Homo sapiens, UniProt Q9ULW8); test: Inactivation kinetics, PAD3; conditions: for kinact/KI: a: single kobs determined; for Fold PAD3 Selectivity: kinact/KI relative to least inhibited isozyme (1.0)
T4 construct: made in house
T4 sequence (Q9ULW8 1-664): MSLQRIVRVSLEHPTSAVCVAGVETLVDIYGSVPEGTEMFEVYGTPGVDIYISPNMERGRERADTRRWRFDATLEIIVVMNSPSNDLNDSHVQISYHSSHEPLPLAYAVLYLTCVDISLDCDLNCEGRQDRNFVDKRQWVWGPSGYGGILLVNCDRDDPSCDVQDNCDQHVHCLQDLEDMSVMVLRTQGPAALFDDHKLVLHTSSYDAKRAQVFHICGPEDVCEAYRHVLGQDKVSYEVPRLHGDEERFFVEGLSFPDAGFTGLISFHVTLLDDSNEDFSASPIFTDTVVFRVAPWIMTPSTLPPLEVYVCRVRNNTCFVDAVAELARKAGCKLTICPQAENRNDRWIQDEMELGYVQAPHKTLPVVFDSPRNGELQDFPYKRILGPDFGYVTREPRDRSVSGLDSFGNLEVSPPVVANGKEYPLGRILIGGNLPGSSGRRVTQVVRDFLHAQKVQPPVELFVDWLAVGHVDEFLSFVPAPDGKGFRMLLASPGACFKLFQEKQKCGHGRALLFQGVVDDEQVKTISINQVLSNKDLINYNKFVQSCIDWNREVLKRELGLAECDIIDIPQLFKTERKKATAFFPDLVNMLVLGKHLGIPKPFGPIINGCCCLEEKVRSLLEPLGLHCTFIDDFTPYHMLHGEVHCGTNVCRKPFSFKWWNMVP
Description: as §1

T2 sequence (Q9Y2J8 whole entry): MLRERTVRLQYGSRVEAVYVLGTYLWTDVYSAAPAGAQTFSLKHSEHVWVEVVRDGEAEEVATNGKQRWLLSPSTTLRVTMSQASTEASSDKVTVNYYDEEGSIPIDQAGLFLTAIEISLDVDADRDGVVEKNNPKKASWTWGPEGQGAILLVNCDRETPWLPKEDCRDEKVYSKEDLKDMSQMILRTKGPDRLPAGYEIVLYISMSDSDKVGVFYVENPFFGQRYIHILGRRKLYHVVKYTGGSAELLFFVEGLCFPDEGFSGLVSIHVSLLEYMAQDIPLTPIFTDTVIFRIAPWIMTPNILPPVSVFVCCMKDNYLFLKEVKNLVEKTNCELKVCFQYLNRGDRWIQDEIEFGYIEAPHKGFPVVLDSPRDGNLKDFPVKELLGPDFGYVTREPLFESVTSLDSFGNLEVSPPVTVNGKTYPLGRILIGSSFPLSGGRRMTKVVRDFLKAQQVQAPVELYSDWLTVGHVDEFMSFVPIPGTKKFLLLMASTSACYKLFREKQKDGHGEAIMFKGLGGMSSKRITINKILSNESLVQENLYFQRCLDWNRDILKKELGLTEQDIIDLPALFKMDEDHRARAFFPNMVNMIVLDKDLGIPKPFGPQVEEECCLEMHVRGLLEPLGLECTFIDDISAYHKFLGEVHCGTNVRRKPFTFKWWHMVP
T3 sequence (Q9UM07 whole entry): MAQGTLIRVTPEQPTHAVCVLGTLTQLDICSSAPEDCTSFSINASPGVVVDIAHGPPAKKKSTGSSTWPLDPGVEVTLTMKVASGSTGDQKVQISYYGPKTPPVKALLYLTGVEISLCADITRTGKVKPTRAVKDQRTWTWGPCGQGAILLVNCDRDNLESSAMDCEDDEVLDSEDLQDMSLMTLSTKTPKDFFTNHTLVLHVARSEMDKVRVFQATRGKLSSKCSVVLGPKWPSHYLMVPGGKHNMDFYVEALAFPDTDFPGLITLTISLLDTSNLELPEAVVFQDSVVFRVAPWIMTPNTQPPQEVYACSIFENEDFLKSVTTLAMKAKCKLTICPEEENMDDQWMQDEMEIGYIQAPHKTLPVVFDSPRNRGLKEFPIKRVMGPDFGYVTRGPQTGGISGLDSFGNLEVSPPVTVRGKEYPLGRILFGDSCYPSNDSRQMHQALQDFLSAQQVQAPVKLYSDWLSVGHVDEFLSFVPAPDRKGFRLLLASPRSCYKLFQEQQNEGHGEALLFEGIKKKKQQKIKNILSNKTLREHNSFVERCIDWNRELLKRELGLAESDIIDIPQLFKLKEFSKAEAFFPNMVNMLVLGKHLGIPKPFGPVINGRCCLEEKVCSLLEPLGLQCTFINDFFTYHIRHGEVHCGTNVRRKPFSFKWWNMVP

Structure (SMILES) | kinact/KI (PAD1) [M⁻¹ s⁻¹] | Fold PAD1 Selectivity (PAD1) [fold] | kinact/KI (PAD2) [M⁻¹ s⁻¹] | Fold PAD2 Selectivity (PAD2) [fold] | kinact/KI (PAD4) [M⁻¹ s⁻¹] | Fold PAD4 Selectivity (PAD4) [fold] | kinact/KI (PAD3) [M⁻¹ s⁻¹] | Fold PAD3 Selectivity (PAD3) [fold]
N=C(CF)NCCC[C@H](NC(=O)c1ccc(-c2ccc(F)cc2)cc1)c1nc2ccccc2[nH]1 [Compound 5o] | 23.3 | 1.0 | 28.3 | 1.2 | 53.3 | 2.3 | 27 | 1.2
N=C(CCl)NCCC[C@H](NC(=O)c1ccc(-c2ccc(F)cc2)cc1)c1nc2ccccc2[nH]1 [Compound 5p, N1-4′-F-[1,1′-Phenyl]benzol-N5-(2-chloro-1-iminoethyl)-1-(1H-benzo[d]imidazol-2-yl)-L-ornithine] | 343 | 3.7 | 91.7 | 1.0 | 280 | 3.1 | 176 | 1.9
N=C(CF)NCCC[C@H](NC(=O)c1ccc(-c2ccccc2)cc1)c1nc2cc(F)c(F)cc2[nH]1 [Compound 5q, N1-[1,1′-Phenyl]benzoyl-N5-(2-fluoro-1-iminoethyl)-1-(5,6-difluoro-1H-benzo[d]imidazol-2-yl)-L-ornithine] | 31 | 1.2 | 26.2 | 1.0 | 60 | 2.4 | 25.5 | 1.0
N=C(CCl)NCCC[C@H](NC(=O)c1ccc(-c2ccccc2)cc1)c1nc2cc(F)c(F)cc2[nH]1 [Compound 5r, N1-[1,1′-Phenyl]benzoyl-N5-(2-chloro-1-iminoethyl)-1-(5,6-difluoro-1H-benzo[d]imidazol-2-yl)-L-ornithine] | 457 | 4.9 | 93.3 | 1.0 | 337 | 3.6 | 239 | 2.6
N=C(CF)NCCC[C@H](NC(=O)c1ccc(-c2ccc(F)cc2)cc1)c1nc2cc(F)c(F)cc2[nH]1 [Compound 5s, N1-4′-F-[1,1′-Phenyl]benzoyl-N5-(2-fluoro-1-iminoethyl)-1-(5,6-difluoro-1H-benzo[d]imidazol-2-yl)-L-omithine] | 29.8 | 1.6 | 23.7 | 1.3 | 67.3 | 3.7 | 18.3 | 1.0
N=C(CCl)NCCC[C@H](NC(=O)c1ccc(-c2ccc(F)cc2)cc1)c1nc2cc(F)c(F)cc2[nH]1 [Compound 5t, N1-4′-F-[1,1′-Phenyl]benzoyl-N5-(2-chloro-1-iminoethyl)-1-(5,6-difluoro-1H-benzo[d]imidazol-2-yl)-L-omithine] | 508 | 5.3 | 95.5 | 1.0 | 354 | 3.7 | 120 | 1.3
C#Cc1ccc(-c2ccc(C(=O)N[C@@H](CCCNC(=N)CCl)c3nc4ccccc4[nH]3)cc2)cc1 [Compound 5v, N1-4′-ethynyl-[1,1′-Phenyl]benzol-N5-(2-chloro-1-iminoethyl)-1-(1H-benzo[d]imidazol-2-yl)-L-ornithine] | 6.92 | 1.1 | 14.6 | 2.3 | 21.7 | 3.5 | 6.25 | 1.0

Now from value to molecule:

kinact/KI (PAD1) [M⁻¹ s⁻¹] | Fold PAD1 Selectivity (PAD1) [fold] | kinact/KI (PAD2) [M⁻¹ s⁻¹] | Fold PAD2 Selectivity (PAD2) [fold] | kinact/KI (PAD4) [M⁻¹ s⁻¹] | Fold PAD4 Selectivity (PAD4) [fold] | kinact/KI (PAD3) [M⁻¹ s⁻¹] | Fold PAD3 Selectivity (PAD3) [fold] | Structure (SMILES)
275 | 11 | 25 | 1.0 | 405 | 16 | 108 | 4.3 | N=C(CF)NCCC[C@H](NC(=O)c1ccccc1C(=O)O)c1nc2ccccc2[nH]1 [Compound 6a, N1-(2-Carboxyl)benzol-N5-(2-fluoro-1-iminoethyl)-1-(1H-benzo[d]imidazol-2-yl)-L-ornithine]
475 | 8.3 | 57.5 | 1.0 | 517 | 9.0 | 354 | 6.2 | N=C(CCl)NCCC[C@H](NC(=O)c1ccccc1C(=O)O)c1nc2ccccc2[nH]1 [Compound 6b, N1-(2-Carboxyl)benzol-N5-(2-chloro-1-iminoethyl)-1-(1H-benzo[d]imidazol-2-yl)-L-omithine]
538 | 40 | 197 | 15 | 13.3 | 1.0 | 17.2 | 1.3 | Cn1c([C@H](CCCNC(=N)CF)NC(=O)c2ccccc2C(=O)O)nc2ccccc21 [Compound 6c, N1-(2-Carboxyl)benzoyl-N5-(2-fluoro-1-iminoethyl)-1-(1-methyl-benzo[d]imidazol-2-yl)-L-ornithine]
537 | 4.3 | 240 | 1.9 | 130 | 1.0 | 125 | 1.0 | Cn1c([C@H](CCCNC(=N)CCl)NC(=O)c2ccccc2C(=O)O)nc2ccccc21 [Compound 6d, N1-(2-Carboxyl)benzoyl-N5-(2-chloro-1-iminoethyl)-1-(1-methyl-benzo[d]imidazol-2-yl)-L-ornithine]
650 | 39 | 527 | 31 | 16.8 | 1.0 | 29.2 | 1.7 | CCn1c([C@H](CCCNC(=N)CF)NC(=O)c2ccccc2C(=O)O)nc2ccccc21 [Compound 6e, N1-(2-Carboxyl)benzoyl-N5-(2-fluoro-1-iminoethyl)-1-(1-ethyl-benzo[d]imidazol-2-yl)-L-ornithine]
785 | 4.3 | 290 | 1.6 | 228 | 1.2 | 183 | 1.0 | CCn1c([C@H](CCCNC(=N)CCl)NC(=O)c2ccccc2C(=O)O)nc2ccccc21 [Compound 6f, N1-(2-Carboxyl)benzoyl-N5-(2-chloro-1-iminoethyl)-1-(1-ethyl-benzo[d]imidazol-2-yl)-L-ornithine]
378 | 49 | 412 | 54 | 7.67 | 1.0 | 33.5 | 4.4 | CC(C)n1c([C@H](CCCNC(=N)CF)NC(=O)c2ccccc2C(=O)O)nc2ccccc21 [Compound 6g, N1-(2-Carboxyl)benzoyl-N5-(2-fluoro-1-iminoethyl)-1-(1-isopropyl-benzo[d]imidazol-2-yl)-L-ornithine]
